According to a melting point compilation (Tetko et al.; mined from patent text by program, amines drawn as free bases though some values may be those of a salt):

| SMILES | melting point |
| --- | --- |
| COc1nc(OC)nc(N(C)C(=O)Oc2ccccc2)n1 | 90 °C |
| COc1ccccc1N1CCN(CCN(C(=O)C2CCCCC2)c2ccccc2N)CC1 | 138 to 140 °C |
| CC12CC(N3CCC4(CC3)OCCO4)C(O)CC1CCC1C2CCC2(C)C(O)C(N3CCCC3)CC12 (stereo not drawn) | 184 to 187 °C |
| CCOC12CC(C=C(C#N)COC)=CC=C1OCO2 (stereo not drawn) | 64 to 65 °C |
| O=C(O)CCCc1ccc(C(Cc2ccccc2)NS(=O)(=O)c2ccc(Cl)cc2)cc1 (stereo not drawn) | 152 to 153 °C |
| COc1nc2ccccc2cc1NC(=O)N1CCN(c2cccc(OC(C)C)c2)CC1 | 111 to 113 °C |
| Cc1ccc(C2=NNC(=O)CC2)c(O)c1 | 210 to 211 °C |
| CC1CCCN(c2ccc(Cl)cc2C(C)C(C(N)=O)c2ccc(C(=O)O)cc2)C1 (stereo not drawn) | 208 to 210 °C |
| COC(=O)C(NS(=O)(=O)c1ccc(-c2ccc(NC(=O)c3cc4ccccc4o3)cc2)cc1)C(C)C (stereo not drawn) | 195 to 200 °C |
| N#Cc1ccc(NC(=O)CCC2CCCC(=O)O2)cc1 (stereo not drawn) | 145 to 148 °C |
| O=C(CSCCOc1ccccc1)c1ccc2[nH]c3ncc(Cl)cc3c2c1 | 167 to 168 °C |
| Nc1ccc(NCC(F)(F)F)c([N+](=O)[O-])c1 | 104 to 106 °C |
| O=C(O)COc1ccc(C(=C2CCCCCC2)c2ccc(O)cc2)cc1 | 170 to 171 °C |
| O=c1c2ccc(O)cc2nc(-c2ccc(O)cc2)n1-c1ccc(OCCCl)cc1 | 285 to 287 °C |
| C=C(C)COc1cc(C)c(NC=O)c(C)c1C | 144 to 145 °C |
| CCc1ccc(SC2CCOC2=O)c(C(=O)O)c1 (stereo not drawn) | 167 to 170 °C |

Results, then the molecule that gave them:

| melting point | SMILES |
| --- | --- |
| 180 to 182 °C | O=C(Nc1cccc(S(=O)(=O)N2CCCC2CO)c1)c1cnn2c(C3CC3)cc(-c3ccc(Cl)cc3)nc12 (stereo not drawn) |
| 117 to 119 °C | CCONC(=O)c1cc(Br)c(Br)s1 |
| 210 to 211 °C | CN(C)c1nc(N)c(-c2nc(N)no2)nc1Cl |
| 220 to 221 °C | O=C(O)Cn1c(=S)c2ccccc2n(Cc2ccc(Cl)cc2Cl)c1=O |
| 256 to 258 °C | Cc1nnc2ccc(-c3cccc(NC(=O)C(C)(C)C)c3)nn12 |
| 204 to 207 °C | COc1cn(-c2ccc(N3CC=CC3)cc2F)nc(-c2ccnn2-c2ccccc2)c1=O |
| 96 to 100 °C | Cn1c(CCOc2ccc(CC3SC(=O)NC3=O)cc2)nc2cccnc21 (stereo not drawn) |
| 193 to 194 °C | CC(C)(C)c1ccc(CCCC(=O)CC2CCCCC2)cc1NC(=O)CC1c2ccccc2Oc2ccccc21 |
| 97 to 99 °C | CCN(C)c1ccc2c(c1)CN(c1cccc(Br)c1COC(C)=O)C2=O |
| 78 to 80 °C | CN(C)CCCC(=O)N1CCC(C2c3ncc(Br)cc3CCc3cc(Cl)cc(Br)c32)CC1 (single isomer, unassigned; (+)) |
| 222 °C | Cc1cc(C#N)cc(C(=O)Nc2cccc(Cl)n2)n1 |
| 145 to 146 °C | COc1ccc([C@@H]2CN(C)CC[C@@H]2NC(=O)c2ccc(C)cc2)cc1OC (relative stereo) |
| 94 to 99 °C | Fc1ccccc1CC[C@H]1CNCCN1 |
| 31 to 33 °C | COCCOc1ccc([N+](=O)[O-])cc1[N+](=O)[O-] |
| 233 to 235 °C | CCCOC(=O)C(C)NC(=O)C(CC(=O)O)NC(=O)C1CCCN1 (stereo not drawn) |
| 144 to 146 °C | CCCCc1nn(-c2ccccc2C(F)(F)F)c(=O)n1Cc1ccc(-c2ccccc2S(=O)(=O)NC(=O)C(c2ccccc2)c2ccccc2)cc1 |
| 161 to 163 °C | Fc1cc(Cl)c2nc(Cl)sc2c1-n1nc2c(c1Cl)CCCC2 |
| > 300 °C | Cn1cc(C2=C(c3cn(C)c4ccccc34)C(=O)NC2=O)c2ccccc21 |
| 194 °C | Cc1ccc(S(=O)(=O)NC(=O)OCCc2ccc(-n3c(-c4ccccc4)nc4c(C)nc(C)cc43)cc2)cc1 |
| 150 to 153 °C | C[C@H](Nc1nc(Nc2cccc(NS(C)(=O)=O)c2)nc2[nH]cnc12)C(C)(C)C |
| 169 to 172 °C | Nc1ccc2c(c1)-c1ccccc1S2=O (stereo not drawn) |
| 96 to 99 °C | COc1cc2c(cc1OC)C(CSc1nnnn1C)NCC2 (stereo not drawn) |
